Experimental data from ChEMBL document CHEMBL3526135, “Induction of xenobiotic receptors, transporters, and drug metabolizing enzymes by oxycodone” (Drug Metab Dispos, 2013).

Tests used:
Type in all cases: ADME, organism-based
Set-up in all cases: dose 15 mg/kg, route intraperitoneal
[1] = tested on: AhR; assay: Effect on AhR mRNA expression in Sprague-Dawley rat liver at 15 mg/kg, ip administered twice daily every 12 hrs for 8 days by microarray analysis relative to control; conditions: read-out: FC
[2] = tested on: Slc22a5; assay: Effect on Slc22a5 mRNA expression in Sprague-Dawley rat liver at 15 mg/kg, ip administered twice daily every 12 hrs for 8 days by microarray analysis relative to control; conditions: read-out: FC
[3] = tested on: Rattus norvegicus; assay: Effect on AhR mRNA expression in Sprague-Dawley rat liver at 15 mg/kg, ip administered twice daily every 12 hrs for 8 days by qRT-PCR analysis relative to control; conditions: in vivo
[4] = tested on: Slc2a2; assay: Effect on Slc2a2 mRNA expression in Sprague-Dawley rat liver at 15 mg/kg, ip administered twice daily every 12 hrs for 8 days by microarray analysis relative to control; conditions: read-out: FC
[5] = tested on: Rattus norvegicus; assay: Effect on CYP2b2 mRNA expression in Sprague-Dawley rat liver at 15 mg/kg, ip administered twice daily every 12 hrs for 8 days by qRT-PCR analysis relative to control; conditions: in vivo
[6] = tested on: Slc37a4; assay: Effect on Slc37a4 mRNA expression in Sprague-Dawley rat liver at 15 mg/kg, ip administered twice daily every 12 hrs for 8 days by microarray analysis relative to control; conditions: read-out: FC
[7] = tested on: Rattus norvegicus; assay: Effect on GAPDH mRNA expression in Sprague-Dawley rat liver at 15 mg/kg, ip administered twice daily every 12 hrs for 8 days by qRT-PCR analysis relative to control; conditions: in vivo
[8] = tested on: Rattus norvegicus; assay: Effect on PXR mRNA expression in Sprague-Dawley rat liver at 15 mg/kg, ip administered twice daily every 12 hrs for 8 days by qRT-PCR analysis relative to control; conditions: in vivo
[9] = tested on: ABCB1; assay: Upregulation of ABCB1 protein expression in Sprague-Dawley rat liver microsomes at 15 mg/kg, ip administered twice daily every 12 hrs for 8 days by Western blot analysis relative to control; conditions: read-out: FC
[10] = tested on: Rattus norvegicus; assay: Effect on Slc22a8 mRNA expression in Sprague-Dawley rat liver at 15 mg/kg, ip administered twice daily every 12 hrs for 8 days by qRT-PCR analysis relative to control; conditions: in vivo
[11] = tested on: CYP2a1; assay: Effect on CYP2a1 mRNA expression in Sprague-Dawley rat liver at 15 mg/kg, ip administered twice daily every 12 hrs for 8 days by microarray analysis relative to control; conditions: read-out: FC
[12] = tested on: CYP2b2; assay: Effect on CYP2b2 mRNA expression in Sprague-Dawley rat liver at 15 mg/kg, ip administered twice daily every 12 hrs for 8 days by microarray analysis relative to control; conditions: read-out: FC
[13] = tested on: Slc38a4; assay: Effect on Slc38a4 mRNA expression in Sprague-Dawley rat liver at 15 mg/kg, ip administered twice daily every 12 hrs for 8 days by microarray analysis relative to control; conditions: read-out: FC
[14] = tested on: Rattus norvegicus; assay: Effect on Slc15a3 mRNA expression in Sprague-Dawley rat liver at 15 mg/kg, ip administered twice daily every 12 hrs for 8 days by qRT-PCR analysis relative to control; conditions: in vivo
[15] = tested on: Rattus norvegicus; assay: Effect on CYP17a1 mRNA expression in Sprague-Dawley rat liver at 15 mg/kg, ip administered twice daily every 12 hrs for 8 days by qRT-PCR analysis relative to control; conditions: in vivo
[16] = tested on: NR1I2; assay: Effect on NR1I2 mRNA expression in Sprague-Dawley rat liver at 15 mg/kg, ip administered twice daily every 12 hrs for 8 days by microarray analysis relative to control; conditions: read-out: FC
[17] = tested on: Abcg5; assay: Effect on Abcg5 mRNA expression in Sprague-Dawley rat liver at 15 mg/kg, ip administered twice daily every 12 hrs for 8 days by microarray analysis relative to control; conditions: read-out: FC
[18] = tested on: CYP3A1; assay: Upregulation of CYP3A1 protein expression in Sprague-Dawley rat liver microsomes at 15 mg/kg, ip administered twice daily every 12 hrs for 8 days by Western blot analysis relative to control; conditions: read-out: FC
[19] = tested on: CYP17a1; assay: Effect on CYP17a1 mRNA expression in Sprague-Dawley rat liver at 15 mg/kg, ip administered twice daily every 12 hrs for 8 days by microarray analysis relative to control; conditions: read-out: FC
[20] = tested on: Slc1a2; assay: Effect on Slc1a2 mRNA expression in Sprague-Dawley rat liver at 15 mg/kg, ip administered twice daily every 12 hrs for 8 days by microarray analysis relative to control; conditions: read-out: FC
[21] = tested on: Rattus norvegicus; assay: Effect on CYP2d1 mRNA expression in Sprague-Dawley rat liver at 15 mg/kg, ip administered twice daily every 12 hrs for 8 days by qRT-PCR analysis relative to control; conditions: in vivo
[22] = tested on: CYP2j4; assay: Effect on CYP2j4 mRNA expression in Sprague-Dawley rat liver at 15 mg/kg, ip administered twice daily every 12 hrs for 8 days by microarray analysis relative to control; conditions: read-out: FC
[23] = tested on: NR1I3; assay: Effect on NR1I3 mRNA expression in Sprague-Dawley rat liver at 15 mg/kg, ip administered twice daily every 12 hrs for 8 days by microarray analysis relative to control; conditions: read-out: FC
[24] = tested on: Slc21a10; assay: Effect on Slc21a10 mRNA expression in Sprague-Dawley rat liver at 15 mg/kg, ip administered twice daily every 12 hrs for 8 days by microarray analysis relative to control; conditions: read-out: FC
[25] = tested on: Rattus norvegicus; assay: Effect on CAR mRNA expression in Sprague-Dawley rat liver at 15 mg/kg, ip administered twice daily every 12 hrs for 8 days by qRT-PCR analysis relative to control; conditions: in vivo
[26] = tested on: Rattus norvegicus; assay: Effect on Abcb1a mRNA expression in Sprague-Dawley rat liver at 15 mg/kg, ip administered twice daily every 12 hrs for 8 days by qRT-PCR analysis relative to control; conditions: in vivo
[27] = tested on: Rattus norvegicus; assay: Effect on Slc38a4 mRNA expression in Sprague-Dawley rat liver at 15 mg/kg, ip administered twice daily every 12 hrs for 8 days by qRT-PCR analysis relative to control; conditions: in vivo
[28] = tested on: Rattus norvegicus; assay: Effect on CYP2d2 mRNA expression in Sprague-Dawley rat liver at 15 mg/kg, ip administered twice daily every 12 hrs for 8 days by qRT-PCR analysis relative to control; conditions: in vivo
[29] = tested on: FMO1; assay: Effect on FMO1 mRNA expression in Sprague-Dawley rat liver at 15 mg/kg, ip administered twice daily every 12 hrs for 8 days by microarray analysis relative to control; conditions: read-out: FC
[30] = tested on: Rattus norvegicus; assay: Effect on CYP3a1 mRNA expression in Sprague-Dawley rat liver at 15 mg/kg, ip administered twice daily every 12 hrs for 8 days by qRT-PCR analysis relative to control; conditions: in vivo
[31] = tested on: CYP3a1; assay: Effect on CYP3a1 mRNA expression in Sprague-Dawley rat liver at 15 mg/kg, ip administered twice daily every 12 hrs for 8 days by microarray analysis relative to control; conditions: read-out: FC
[32] = tested on: CYP2e1; assay: Effect on CYP2e1 mRNA expression in Sprague-Dawley rat liver at 15 mg/kg, ip administered twice daily every 12 hrs for 8 days by microarray analysis relative to control; conditions: read-out: FC
[33] = tested on: Yc2/Gsta5; assay: Effect on Yc2/Gsta5 mRNA expression in Sprague-Dawley rat liver at 15 mg/kg, ip administered twice daily every 12 hrs for 8 days by microarray analysis relative to control; conditions: read-out: FC

COc1ccc2c3c1O[C@H]1C(=O)CC[C@@]4(O)[C@@H](C2)N(C)CC[C@]314.Cl [OXYCODONE HYDROCHLORIDE]
fold induction at 8 days [1]: 2.3 | fold induction at 8 days [2]: 2.8 | Activity [3]: Active | fold induction at 8 days [4]: 1.5 | Activity [5]: Active | fold induction at 8 days [6]: 2 | Activity [7]: Active | Activity [8]: Active | fold induction at 8 days [9]: 3 | Activity [10]: Active | fold induction at 8 days [11]: 1.7 | fold induction at 8 days [12]: 6 | fold induction at 8 days [13]: 1.8 | Activity [14]: Active | Activity [15]: Active | fold induction at 8 days [16]: 2.9 | fold induction at 8 days [17]: 3.6 | fold induction at 8 days [18]: 12.2 | fold induction at 8 days [19]: 17.1 | fold induction at 8 days [20]: 2.4 | Activity [21]: Active | fold induction at 8 days [22]: 2.4 | fold induction at 8 days [23]: 6.1 | fold induction at 8 days [24]: 1.5 | Activity [25]: Active | Activity [26]: Active | Activity [27]: Active | Activity [28]: Active | fold induction at 8 days [29]: 3.7 | Activity [30]: Active | fold induction at 8 days [31]: 1.7 | fold induction at 8 days [32]: 1.5 | fold induction at 8 days [33]: 7
